# Earlier results, collected in patent US7833744B2, “Methods to evaluate cytochrome P450 2C19 isoenzyme activity using a breath test” (Cambridge Isotope Laboratories, Inc., priority 2006, dated 2010).
# Columns and labels:
# platelets = settings: healthy volunteers who carry CYP2C19*2 compared to CYP2C19*1*1 genotype
# CYP2C19 [1] = molecular target: CYP2C19 (Homo sapiens, UniProt P33261); settings: in EMs
# CYP2C19 [2] = settings: PMs vs EMs
# Chain of CYP2C19 (Homo sapiens, UniProt P33261) (P33261 whole entry): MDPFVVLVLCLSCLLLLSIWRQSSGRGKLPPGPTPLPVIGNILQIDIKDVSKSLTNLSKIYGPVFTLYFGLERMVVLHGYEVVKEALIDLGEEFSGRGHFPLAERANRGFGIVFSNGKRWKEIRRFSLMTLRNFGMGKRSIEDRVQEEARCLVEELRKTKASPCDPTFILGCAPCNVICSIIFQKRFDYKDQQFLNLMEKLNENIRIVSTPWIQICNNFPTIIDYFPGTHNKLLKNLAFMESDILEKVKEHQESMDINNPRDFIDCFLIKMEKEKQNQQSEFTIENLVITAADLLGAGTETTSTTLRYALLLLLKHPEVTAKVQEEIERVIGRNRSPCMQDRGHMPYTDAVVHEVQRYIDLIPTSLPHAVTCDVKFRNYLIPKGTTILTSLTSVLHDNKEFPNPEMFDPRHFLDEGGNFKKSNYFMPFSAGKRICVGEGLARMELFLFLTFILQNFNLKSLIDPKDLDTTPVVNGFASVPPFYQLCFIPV
SMILES,anti-platelet effect (platelets),share of dose cleared by CYP2C19 (CYP2C19 [1]),exposure in PMs relative to EMs of CYP2C19 (CYP2C19 [2])
COC(=O)[C@H](c1ccccc1Cl)N1CCc2sccc2C1 [clopidogrel],no anti-platelet effect,–,–
Cc1c(OCC(F)(F)F)ccnc1C[S+]([O-])c1nc2ccccc2[nH]1 (stereo not shown) [lansoprazole],–,approximately 80%,about six-fold higher
COc1ccc2[nH]c([S+]([O-])Cc3ncc(C)c(OC)c3C)nc2c1 (stereo not shown) [omeprazole],–,approximately 80%,about six-fold higher
COc1ccnc(C[S+]([O-])c2nc3ccc(OC(F)F)cc3[nH]2)c1OC (stereo not shown) [pantoprazole],–,approximately 80%,about six-fold higher
